Measurements published in US5140009A (Tap Pharmaceuticals, Inc., priority 1990, dated 1992).
Numbered stars: 1 amine (or outer) side, 2 acyl side, 3 side chain; on linkers, the order of the positions; unused ones are H or OH. Square brackets hold non-standard residues; d marks the D form. Peptide text beside a SMILES is read from it. * marks the point of attachment. Propanoyl(3-indol-3-yl) = O=C(CCc1c[nH]c2ccccc12)*; Desaminohistidyl = O=C(CCc1c[nH]cn1)*; d2Nal = N[C@H](Cc1ccc2ccccc2c1)C(=O)O; dLys(iPr) = CC(C)NCCCC[C@@H](N)C(=O)O; Hydrocinnamoyl = O=C(CCc1ccccc1)*; X11 = CN(C)c1ccc(C=CC(=O)*)cc1; NMeL = CN[C@@H](CC(C)C)C(=O)O; dNMeL = CN[C@H](CC(C)C)C(=O)O; Nicotinoyl = O=C(c1cccnc1)*; Picolinoyl = O=C(c1ccccn1)*; dOrn = NCCC[C@@H](N)C(=O)O; Morpholide = C1CN(*)CCO1; PhAc = O=C(Cc1ccccc1)*; X2 = O=C(C=Cc1ccccc1)*; CO = O=C([*:1])[*:2]

Biological target: T1, LHRH receptors (Rattus norvegicus, UniProt P30969)
T1 construct: Pituitary membranes containing LHRH receptors are prepared in batches from quick-frozen rat pituitaries; tissue Hilltop Labs; host or cells: rat pituitary membranes
T1 sequence (P30969 1-327): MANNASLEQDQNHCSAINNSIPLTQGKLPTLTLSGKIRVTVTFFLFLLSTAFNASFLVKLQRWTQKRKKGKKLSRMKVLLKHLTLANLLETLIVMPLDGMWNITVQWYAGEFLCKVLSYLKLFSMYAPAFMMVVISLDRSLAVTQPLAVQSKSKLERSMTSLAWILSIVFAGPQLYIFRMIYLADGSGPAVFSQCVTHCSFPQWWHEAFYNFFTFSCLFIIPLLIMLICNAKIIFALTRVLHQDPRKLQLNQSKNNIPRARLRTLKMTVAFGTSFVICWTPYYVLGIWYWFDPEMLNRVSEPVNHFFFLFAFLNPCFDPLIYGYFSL
Experiment: Receptor Binding (radioligand receptor binding assay)
Details: table 3; rat pituitary membranes, radioiodinated [D-Leu^6 -des Gly^10 ]-LHRH ethyl amide 50 pM, 2 hours at 4° C.; read-out: Receptor Binding pkI (converted)

Compound	Ki
CCNC(=O)[C@@H]1CCCN1C(=O)[C@H](CCCNC(=N)N)NC(=O)[C@H](CC(C)C)N(C)C(=O)[C@@H](Cc1c[nH]c2ccccc12)NC(=O)[C@H](Cc1ccc(O)cc1)NC(=O)[C@H](CO)NC(=O)CCc1c[nH]c2ccccc12 [Compound 46, N-(3-(3-Indole)propionyl)Ser-Tyr-D-Trp-N-Me-Leu-Arg-Pro-NHEt] ({Propanoyl(3-indol-3-yl)}-SY[dW][NMeL]RP-NHEt)	11 nM
CC(C)C[C@H](NC(=O)[C@@H](Cc1ccc2ccccc2c1)NC(=O)[C@H](Cc1ccc(O)cc1)NC(=O)[C@H](CO)NC(=O)CCc1c[nH]c2ccccc12)C(=O)N[C@@H](CCCNC(=N)N)C(=O)N1CCC[C@H]1C(=O)NCC(N)=O [Compound 47, N-(3-(3-Indole)propionyl)-Ser-Tyr-D-2-Nal-Leu-Arg-Pro-Gly-NH2] ({Propanoyl(3-indol-3-yl)}-SY[d2Nal]LRPG-NH2)	4.27 nM
CCNC(=O)[C@@H]1CCCN1C(=O)[C@H](CCCNC(=N)N)NC(=O)[C@H](CC(C)C)NC(=O)[C@@H](CCCN)NC(=O)[C@H](Cc1ccc(O)cc1)NC(=O)[C@H](CO)NC(=O)CCc1c[nH]c2ccccc12 [Compound 49, (4-9) [N-(3-(3-indole)propionyl)-Ser^4 -D-Orn^6 -Pro^9 NHEt]LHRH] ({Propanoyl(3-indol-3-yl)}-SY[dOrn]LRP-NHEt)	55 nM
CCNC(=O)[C@@H]1CCCN1C(=O)[C@H](CCCNC(=N)N)NC(=O)[C@H](CC(C)C)NC(=O)[C@@H](CCC(N)=O)NC(=O)[C@H](Cc1ccc(O)cc1)NC(=O)[C@H](CO)NC(=O)CCc1c[nH]c2ccccc12 [Compound 50, (4-9)[N-(3-(3-Indole)propionyl)-Ser^4 -D-Gln^6 -Pro^9 -NHEt]LHRH] ({Propanoyl(3-indol-3-yl)}-SY[dQ]LRP-NHEt)	166 nM
CCNC(=O)CC[C@@H](NC(=O)[C@H](Cc1ccc(O)cc1)NC(=O)[C@H](CO)NC(=O)CCc1c[nH]c2ccccc12)C(=O)N[C@@H](CC(C)C)C(=O)N[C@@H](CCCNC(=N)N)C(=O)N1CCC[C@H]1C(=O)NCC [Compound 51, N-(3-(3-Indole)propionyl)-Ser-Tyr-N-delta-ethyl-D-Gln-Leu-Arg-ProNHEt] ({Propanoyl(3-indol-3-yl)}-SY[dE](NHEt)LRP-NHEt)	132 nM
CCNC(=O)[C@@H]1CCCN1C(=O)[C@H](CCCNC(=N)N)NC(=O)[C@H](CC(C)C)NC(=O)[C@@H](CCCCNC(=O)c1cccnc1)NC(=O)[C@H](Cc1ccc(O)cc1)NC(=O)[C@H](CO)NC(=O)CCc1c[nH]c2ccccc12 [Compound 52] ({Propanoyl(3-indol-3-yl)}-SY[dK](Nicotinoyl)LRP-NHEt)	21.9 nM
CCNC(=O)[C@@H]1CCCN1C(=O)[C@H](CCCNC(=N)N)NC(=O)[C@H](CC(C)C)NC(=O)[C@@H](CCCCNC(=O)c1ccccn1)NC(=O)[C@H](Cc1ccc(O)cc1)NC(=O)[C@H](CO)NC(=O)CCc1c[nH]c2ccccc12 [Compound 53] ({Propanoyl(3-indol-3-yl)}-SY[dK](Picolinoyl)LRP-NHEt)	27.5 nM
CCNC(=O)[C@@H]1CCCN1C(=O)[C@H](CCCNC(=N)N)NC(=O)[C@H](CC(C)C)NC(=O)[C@@H](CCCCNC(C)C)NC(=O)[C@H](Cc1ccc(O)cc1)NC(=O)[C@H](CO)NC(=O)CCc1c[nH]c2ccccc12 [Compound 54, N-(3-(3-Indole)propionyl)-Ser-Tyr-D-Lys-(N-epsilon-isp)-Leu-Arg-Pro-NHEt] ({Propanoyl(3-indol-3-yl)}-SY[dLys(iPr)]LRP-NHEt)	20.4 nM
CCNC(=O)[C@@H]1CCCN1C(=O)[C@H](CCCNC(=N)N)NC(=O)[C@H](CC(C)C)NC(=O)[C@@H](CCCCN)NC(=O)[C@H](Cc1ccc(O)cc1)NC(=O)[C@H](CO)NC(=O)CCc1c[nH]c2ccccc12 [Compound 55, N-(3-(3-Indole)propionyl)-Ser-Tyr-D-Lys-Leu-Arg-Pro-NHEt] ({Propanoyl(3-indol-3-yl)}-SY[dK]LRP-NHEt)	15.1 nM
CC(C)C[C@H](NC(=O)[C@@H](Cc1ccc2ccccc2c1)NC(=O)[C@H](Cc1ccc(O)cc1)NC(=O)[C@H](CO)NC(=O)CCc1c[nH]c2ccccc12)C(=O)N[C@@H](CCCNC(=N)N)C(=O)N1CCC[C@H]1C(=O)N[C@H](C)C(N)=O [Compound 56, N-(3-(3-Indole)propionyl)-Ser-Tyr-D-2-Nal-Leu-Arg-Pro-D-AlaNH2] ({Propanoyl(3-indol-3-yl)}-SY[d2Nal]LRP[dA]-NH2)	0.646 nM
CCNC(=O)[C@@H]1CCCN1C(=O)[C@H](CCCNC(=N)N)NC(=O)[C@H](CC(C)C)NC(=O)[C@@H](CC(C)C)N(C)C(=O)[C@H](Cc1ccc(O)cc1)NC(=O)[C@H](CO)NC(=O)CCc1c[nH]c2ccccc12 [Compound 58, N-(3-(3-Indole)propionyl)-Ser-Tyr-D-N-Me-Leu-Leu-Arg-Pro-NHEt] ({Propanoyl(3-indol-3-yl)}-SY[dNMeL]LRP-NHEt)	22.4 nM
CCNC(=O)[C@@H]1CCCN1C(=O)[C@H](CCCNC(=N)N)NC(=O)[C@H](CC(C)C)NC(=O)[C@@H](Cc1c[nH]c2ccccc12)NC(=O)[C@H](Cc1ccc(O)cc1)NC(=O)[C@H](CO)NC(=O)[C@H](Cc1c[nH]c2ccccc12)NC(=O)[C@H](Cc1ccccc1)NC(=O)N1CCOCC1 [Compound 59, N-alpha-Morpholinocarbonyl-Phe-Trp-Ser-Tyr-D-Trp-Leu-Arg-ProNHET] ({Morpholide-CO}-FWSY[dW]LRP-NHEt)	0.00832 nM
CCNC(=O)[C@@H]1CCCN1C(=O)[C@H](CCCNC(=N)N)NC(=O)[C@H](CC(C)C)NC(=O)[C@@H](CCCNC(=N)N)NC(=O)[C@H](Cc1ccc(O)cc1)NC(=O)[C@H](CO)NC(=O)[C@H](Cc1c[nH]c2ccccc12)NC(=O)[C@H](Cc1ccccc1)NC(=O)N1CCOCC1 [Compound 60, N-(alpha)-Morpholinocarbonyl-Phe-Trp-Ser-Tyr-D-Arg-Leu-Arg-ProNHEt] ({Morpholide-CO}-FWSY[dR]LRP-NHEt)	5.25 nM
CCNC(=O)[C@@H]1CCCN1C(=O)[C@H](CCCNC(=N)N)NC(=O)[C@H](CC(C)C)NC(=O)[C@@H](Cc1c[nH]c2ccccc12)NC(=O)[C@H](Cc1ccc(O)cc1)NC(=O)[C@H](CO)NC(=O)[C@H](Cc1c[nH]c2ccccc12)NC(=O)CCc1c[nH]cn1 [Compound 61, N-[3-(4-Imidazolyl)propionyl]-Trp-Ser-Tyr-D-Trp-Leu-Arg-ProNHEt] (Desaminohistidyl-WSY[dW]LRP-NHEt)	0.427 nM
CCNC(=O)[C@@H]1CCCN1C(=O)[C@H](CCCNC(=N)N)NC(=O)[C@H](CC(C)C)NC(=O)[C@@H](Cc1c[nH]c2ccccc12)NC(=O)[C@H](Cc1ccc(O)cc1)NC(=O)[C@H](CO)NC(=O)[C@H](Cc1c[nH]c2ccccc12)NC(=O)C=Cc1ccccc1 [Compound 62, (3-9)[N-Cinnamoyl-Trp^3 -D-Trp^6 -Pro^9 -NHEt]LHRH] (X2-WSY[dW]LRP-NHEt)	10.5 nM
CCNC(=O)[C@@H]1CCCN1C(=O)[C@H](CCCNC(=N)N)NC(=O)[C@H](CC(C)C)NC(=O)[C@@H](CC(C)C)NC(=O)[C@H](Cc1ccc(O)cc1)NC(=O)[C@H](CO)NC(=O)[C@H](Cc1c[nH]c2ccccc12)NC(=O)C=Cc1ccccc1 [Compound 63, (3-9)[N-Cinnamoyl-Trp^3 -D-Leu^6 -Pro^9 -NHEt]LHRH] (X2-WSY[dL]LRP-NHEt)	50.1 nM
CCNC(=O)[C@@H]1CCCN1C(=O)[C@H](CCCNC(=N)N)NC(=O)[C@H](CC(C)C)NC(=O)[C@@H](CC(C)C)NC(=O)[C@H](Cc1ccc(O)cc1)NC(=O)[C@H](CO)NC(=O)[C@H](Cc1c[nH]c2ccccc12)NC(=O)C=Cc1ccc(N(C)C)cc1 [Compound 64, (3-9)[N-((para-Dimethylamino)cinnamoyl)-Trp^3 -D-Leu^6 -Pro^9 -NHEt]LHRH] (X11-WSY[dL]LRP-NHEt)	437 nM
CCNC(=O)[C@@H]1CCCN1C(=O)[C@H](CCCNC(=N)N)NC(=O)[C@H](CC(C)C)NC(=O)[C@@H](Cc1c[nH]c2ccccc12)NC(=O)[C@H](Cc1ccc(O)cc1)NC(=O)[C@H](CO)NC(=O)[C@H](Cc1c[nH]c2ccccc12)NC(=O)CCc1ccccc1 [Compound 65, (3-9)[N-(3-Phenylpropionyl)-Trp^3 -D-Trp^6 -Pro^9 -NHEt]LHRH] (Hydrocinnamoyl-WSY[dW]LRP-NHEt)	0.269 nM
CCNC(=O)[C@@H]1CCCN1C(=O)[C@H](CCCNC(=N)N)NC(=O)[C@H](CC(C)C)NC(=O)[C@@H](CC(C)C)NC(=O)[C@H](Cc1ccc(O)cc1)NC(=O)[C@H](CO)NC(=O)[C@H](Cc1c[nH]c2ccccc12)NC(=O)CCc1ccccc1 [Compound 66, (3-9)[N-(3-Phenylpropionyl)-Trp^3 -D-Leu^6 -Pro^9 -NHEt]LHRH] (Hydrocinnamoyl-WSY[dL]LRP-NHEt)	1.78 nM
CCNC(=O)[C@@H]1CCCN1C(=O)[C@H](CCCNC(=N)N)NC(=O)[C@H](CC(C)C)NC(=O)[C@@H](CC(C)C)NC(=O)[C@H](Cc1ccc(O)cc1)NC(=O)[C@H](CO)NC(=O)[C@H](Cc1c[nH]c2ccccc12)NC(=O)Cc1ccccc1 [Compound 68, (3-9)[N-(Phenylacetyl)-Trp^3 -D-Leu^6 -Pro^9 -NHEt]LHRH] (PhAc-WSY[dL]LRP-NHEt)	21.9 nM
CCNC(=O)[C@@H]1CCCN1C(=O)[C@H](CCCNC(=N)N)NC(=O)[C@H](CC(C)C)NC(=O)[C@@H](Cc1c[nH]c2ccccc12)NC(=O)[C@H](Cc1ccc(O)cc1)NC(=O)[C@H](CO)NC(=O)[C@H](Cc1c[nH]c2ccccc12)NC(=O)[C@H](Cc1c[nH]cn1)NC(=O)CCc1cnc[nH]1 [Compound 69, N-(3-(5-Imidazolyl)propionyl)-His-Trp-Ser-Tyr-D-Trp-Leu-Arg-Pro-NHEt] (Desaminohistidyl-HWSY[dW]LRP-NHEt)	1.05 nM
